According to US8192962B2, “Processes for detecting toxic substances” (Daikin Industries, Ltd., priority 2001, dated 2012):

Test system: Unknown protein yeast genes
Test: DNA chip mRNA expression in yeast, unknown protein yeast genes (Table 1)
Assay type: cell-based, Saccharomyces cerevisiae S288C
How it was run: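 In this screen, yeast in logarithmic growth are challenged for two hours with a toxic substance at a non-lethal inhibitory concentration. Their mRNA, converted to Cy3- or Cy5-labeled cDNA, hybridizes at 65° C. to a chip spanning every yeast gene, and expression is expressed as a ratio to untreated cells.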

SMILES: [Cl][Hg][Cl] [(3), HgCl2]
- The level of expressed mRNA in the presence of chemical substance/The level of expressed mRNA in the absence of chemical substance (yeast gene YKL195W, incubated two hours with chemical substance): 0.4
- The level of expressed mRNA in the presence of chemical substance/The level of expressed mRNA in the absence of chemical substance (yeast gene YKR091W, incubated two hours with chemical substance): 0.9
- The level of expressed mRNA in the presence of chemical substance/The level of expressed mRNA in the absence of chemical substance (yeast gene YLR054C, incubated two hours with chemical substance): 0.4
- The level of expressed mRNA in the presence of chemical substance/The level of expressed mRNA in the absence of chemical substance (yeast gene YLR149C, incubated two hours with chemical substance): 3.4
- The level of expressed mRNA in the presence of chemical substance/The level of expressed mRNA in the absence of chemical substance (yeast gene YLR152C, incubated two hours with chemical substance): 1.1
- The level of expressed mRNA in the presence of chemical substance/The level of expressed mRNA in the absence of chemical substance (yeast gene YLR194C, incubated two hours with chemical substance): 1.3
- The level of expressed mRNA in the presence of chemical substance/The level of expressed mRNA in the absence of chemical substance (yeast gene YLR324W, incubated two hours with chemical substance): 0.9
- The level of expressed mRNA in the presence of chemical substance/The level of expressed mRNA in the absence of chemical substance (yeast gene YLR350W, incubated two hours with chemical substance): 3.2
- The level of expressed mRNA in the presence of chemical substance/The level of expressed mRNA in the absence of chemical substance (yeast gene YLR387C, incubated two hours with chemical substance): 0.8
- The level of expressed mRNA in the presence of chemical substance/The level of expressed mRNA in the absence of chemical substance (yeast gene YLR460C): 2.0
- The level of expressed mRNA in the presence of chemical substance/The level of expressed mRNA in the absence of chemical substance (yeast gene YML117W, incubated two hours with chemical substance): 0.9
- The level of expressed mRNA in the presence of chemical substance/The level of expressed mRNA in the absence of chemical substance (yeast gene YMR009W, incubated two hours with chemical substance): 0.5
- The level of expressed mRNA in the presence of chemical substance/The level of expressed mRNA in the absence of chemical substance (yeast gene YMR067C, incubated two hours with chemical substance): 1.1
- The level of expressed mRNA in the presence of chemical substance/The level of expressed mRNA in the absence of chemical substance (yeast gene YMR090W): 2.3
- The level of expressed mRNA in the presence of chemical substance/The level of expressed mRNA in the absence of chemical substance (yeast gene YMR095C, incubated two hours with chemical substance): 1.6
- The level of expressed mRNA in the presence of chemical substance/The level of expressed mRNA in the absence of chemical substance (yeast gene YMR097C, incubated two hours with chemical substance): 0.7
- The level of expressed mRNA in the presence of chemical substance/The level of expressed mRNA in the absence of chemical substance (yeast gene YMR102C, incubated two hours with chemical substance): 1.1
- The level of expressed mRNA in the presence of chemical substance/The level of expressed mRNA in the absence of chemical substance (yeast gene YMR107W, incubated two hours with chemical substance): 1.7
- The level of expressed mRNA in the presence of chemical substance/The level of expressed mRNA in the absence of chemical substance (yeast gene YMR180C, incubated two hours with chemical substance): 1.0
- The level of expressed mRNA in the presence of chemical substance/The level of expressed mRNA in the absence of chemical substance (yeast gene YMR184W, incubated two hours with chemical substance): 1.0
- The level of expressed mRNA in the presence of chemical substance/The level of expressed mRNA in the absence of chemical substance (yeast gene YMR191W, incubated two hours with chemical substance): 1.9
- The level of expressed mRNA in the presence of chemical substance/The level of expressed mRNA in the absence of chemical substance (yeast gene YMR295C, incubated two hours with chemical substance): 1.2
- The level of expressed mRNA in the presence of chemical substance/The level of expressed mRNA in the absence of chemical substance (yeast gene YMR316W, incubated two hours with chemical substance): 1.1
- The level of expressed mRNA in the presence of chemical substance/The level of expressed mRNA in the absence of chemical substance (yeast gene YNL044W, incubated two hours with chemical substance): 2.3
- The level of expressed mRNA in the presence of chemical substance/The level of expressed mRNA in the absence of chemical substance (yeast gene YNL074C, incubated two hours with chemical substance): 1.8
- The level of expressed mRNA in the presence of chemical substance/The level of expressed mRNA in the absence of chemical substance (yeast gene YNL092W, incubated two hours with chemical substance): 2.4
- The level of expressed mRNA in the presence of chemical substance/The level of expressed mRNA in the absence of chemical substance (yeast gene YNL115C, incubated two hours with chemical substance): 1.6
- The level of expressed mRNA in the presence of chemical substance/The level of expressed mRNA in the absence of chemical substance (yeast gene YNL156C, incubated two hours with chemical substance): 0.9
- The level of expressed mRNA in the presence of chemical substance/The level of expressed mRNA in the absence of chemical substance (yeast gene YNL234W, incubated two hours with chemical substance): 0.6
- The level of expressed mRNA in the presence of chemical substance/The level of expressed mRNA in the absence of chemical substance (yeast gene YNL281W, incubated two hours with chemical substance): 2.0
- The level of expressed mRNA in the presence of chemical substance/The level of expressed mRNA in the absence of chemical substance (yeast gene YNL305C, incubated two hours with chemical substance): 2.7
- The level of expressed mRNA in the presence of chemical substance/The level of expressed mRNA in the absence of chemical substance (yeast gene YNR068C, incubated two hours with chemical substance): 2.3
- The level of expressed mRNA in the presence of chemical substance/The level of expressed mRNA in the absence of chemical substance (yeast gene YOL032W, incubated two hours with chemical substance): 2.0
- The level of expressed mRNA in the presence of chemical substance/The level of expressed mRNA in the absence of chemical substance (yeast gene YOL036W, incubated two hours with chemical substance): 1.3
- The level of expressed mRNA in the presence of chemical substance/The level of expressed mRNA in the absence of chemical substance (yeast gene YOL047C, incubated two hours with chemical substance): 1.1
- The level of expressed mRNA in the presence of chemical substance/The level of expressed mRNA in the absence of chemical substance (yeast gene YOL071W, incubated two hours with chemical substance): 1.7
- The level of expressed mRNA in the presence of chemical substance/The level of expressed mRNA in the absence of chemical substance (yeast gene YOL082W, incubated two hours with chemical substance): 1.6
- The level of expressed mRNA in the presence of chemical substance/The level of expressed mRNA in the absence of chemical substance (yeast gene YOL083W, incubated two hours with chemical substance): 1.2
- The level of expressed mRNA in the presence of chemical substance/The level of expressed mRNA in the absence of chemical substance (yeast gene YOL117W, incubated two hours with chemical substance): 0.5
- The level of expressed mRNA in the presence of chemical substance/The level of expressed mRNA in the absence of chemical substance (yeast gene YOL131W, incubated two hours with chemical substance): 0.6
- The level of expressed mRNA in the presence of chemical substance/The level of expressed mRNA in the absence of chemical substance (yeast gene YOL150C): 9.9
- The level of expressed mRNA in the presence of chemical substance/The level of expressed mRNA in the absence of chemical substance (yeast gene YOL162W, incubated two hours with chemical substance): 1.7
- The level of expressed mRNA in the presence of chemical substance/The level of expressed mRNA in the absence of chemical substance (yeast gene YOR019W, incubated two hours with chemical substance): 0.8
- The level of expressed mRNA in the presence of chemical substance/The level of expressed mRNA in the absence of chemical substance (yeast gene YOR197W, incubated two hours with chemical substance): 1.1
- The level of expressed mRNA in the presence of chemical substance/The level of expressed mRNA in the absence of chemical substance (yeast gene YPL087W, incubated two hours with chemical substance): 3.0
- The level of expressed mRNA in the presence of chemical substance/The level of expressed mRNA in the absence of chemical substance (yeast gene YPL196W, incubated two hours with chemical substance): 1.3
- The level of expressed mRNA in the presence of chemical substance/The level of expressed mRNA in the absence of chemical substance (yeast gene YPL206C, incubated two hours with chemical substance): 1.4
- The level of expressed mRNA in the presence of chemical substance/The level of expressed mRNA in the absence of chemical substance (yeast gene YPL222W, incubated two hours with chemical substance): 0.8
- The level of expressed mRNA in the presence of chemical substance/The level of expressed mRNA in the absence of chemical substance (yeast gene YPR023C, incubated two hours with chemical substance): 1.2
- The level of expressed mRNA in the presence of chemical substance/The level of expressed mRNA in the absence of chemical substance (yeast gene YPR151C, incubated two hours with chemical substance): 1.5
